Laboratory results taken from patent US7705043B2, “Substituted aminodicarboxylic acid derivatives having pharmaceutical properties” (Bayer Schering Pharma Aktiengesellschaft, priority 2001, dated 2010).

system: arteria saphena rings; test: Vasorelaxant effect in vitro (phenylephrine-contracted rings of rabbit arteria saphena); assay type: cell-based; details: Oryctolagus cuniculus, contraction generated by phenylephrine, concentration reducing height of control contraction by 50%
Protocol: Vasorelaxant Effect in Vitro
Rabbits are anesthetized or killed by intravenous injection of thiopental sodium (about 50 mg/kg) and exsanguinated. The arteria saphena is removed and divided into rings 3 mm wide. The individual rings are in each case mounted on a pair of hooks of triangular shape, open at the ends and made of special wire (Remanium®) having a diameter of 0.3 mm. Under tension, each ring is introduced into a 5 ml organ bath containing carbogen-gassed Krebs-Henseleit solution at 37° C. with the following composition (mM): NaCl: 119; KCl: 4.8; CaCl2×2H2O: 1; MgSO4×7H2O: 1.4; KH2PO4: 1.2; NaHCO3: 25; glucose: 10; bovine serum albumin: 0.001%. The force of contraction is detected with Statham UC2 cells, amplified and digitized via A/D converters (DAS-1802 HC, Keithley Instruments, Munich) and recorded in parallel on chart recorders. Contractions are generated by adding phenylephrine.
After several (generally 4) control cycles, the substance to be investigated is added in each further run in increasing dosage in each case, and the height of the contraction reached under the influence of the test substance is compared with the height of the contraction reached in the last preceding run. The concentration necessary to reduce the height of the control value by 50% (IC50) is calculated from this. The standard application volume is 5 μl. The DMSO content in the bath solution corresponds to 0.1%.

| SMILES | IC50 [nM] |
| --- | --- |
| COc1cccc(-c2ccc(OCc3c(C)sc(C)c3CCN(CCCCC(=O)O)Cc3ccc(C(=O)O)cc3)cc2)c1 [Example 10] | 51 |
| Cc1sc(C)c(COc2ccc(-c3ccc(Cl)cc3Cl)cc2)c1CCN(CCCCC(=O)O)Cc1ccc(C(=O)O)cc1 [Example 3, 4-({(4-Carboxybutyl)[2-(4-{[(2′,4′-dichloro-1,1′-biphenyl-4-yl)oxy]methyl}-2,5-dimethyl-3-thienyl)ethyl]amino}methyl)benzoic acid] | 2 |
| Cc1sc(C)c(COc2ccc(-c3ccc(C(F)(F)F)cc3)cc2)c1CCN(CCCCC(=O)O)Cc1ccc(C(=O)O)cc1 [Example 4] | 22 |
| Cc1ccc(OCc2ccc(-c3ccc(C(F)(F)F)cc3)cc2)c(CCN(CCCCC(=O)O)Cc2ccc(C(=O)O)cc2)n1 [Example 16] | 125 |

The remaining molecules from weak to strong by IC50, led by results:

| IC50 [nM] | SMILES |
| --- | --- |
| 94 | COc1ccc(-c2ccc(COc3cc4c(cc3CCN(CCCCC(=O)O)Cc3ccc(C(=O)O)cc3)CCCC4)cc2)cc1 [Example 13, 4-{[(4-Carboxybutyl)(2-{3-[(4′-methoxy-1,1′-biphenyl-4-yl)methoxy]-5,6,7,8-tetrahydro-2-naphthyl}ethyl)amino]methyl}benzoic acid] |
| 61 | Cc1sc(C)c(COc2ccc(-c3ccc(C(C)(C)C)cc3)cc2)c1CCN(CCCCC(=O)O)Cc1ccc(C(=O)O)cc1 [Example 9] |
| 7 | COc1ccc(-c2ccc(OCc3c(C)sc(C)c3CCN(CCCCC(=O)O)Cc3ccc(C(=O)O)cc3)cc2)cc1 [Example 5] |

system: not given; test: not given; details: not given

| melting point [°C] | SMILES |
| --- | --- |
| > 240 | COc1ccc(-c2ccc(COc3cc4c(cc3CCN(CCCCC(=O)O)Cc3ccc(C(=O)O)cc3)CCCC4)cc2)cc1 [Example 13, 4-{[(4-Carboxybutyl)(2-{3-[(4′-methoxy-1,1′-biphenyl-4-yl)methoxy]-5,6,7,8-tetrahydro-2-naphthyl}ethyl)amino]methyl}benzoic acid] |
